Molecules are shown by their SMILES.

For data set [1], the system named is SK-OV-3 human ovarian carcinoma cell line. Description: MTT cytotoxicity assay, SK-OV-3. Type of data set: cell-based. The following applies: Homo sapiens, SK-OV-3, 48 h, mean ± SD from three independent experiments. How it is done:
(§1) The in vitro antiproliferative activity of the DHAA derivatives 3a–o and 4a–o against four human cancer cell lines (MGC-803 human gastric cancer cell line, CNE-2 human nasopharyngeal carcinoma cell line, SK-OV-3 human ovarian carcinoma cell line, NCI-H460 human lung cancer cell line) and the human normal liver cell line LO2 were evaluated by MTT (methyl thiazolytetrazolium) assay and compared with the parent compound DHAA and the positive control cisplatin in each panel.
(§2) The cytotoxicity of the compounds was evaluated against NCI-H460, MGC-803, SK-OV-3, CNE-2 and LO2 using an MTT assay. Cells were grown on 96-well micro-plates at a density of 4 × 10^3 cells per well in DMEM (dulbecco’s modified eagle medium) medium with 10% FBS (fetal bovine serum). The plates were incubated at 37 °C with 5% CO2. The cells were then exposed to different concentrations of target compounds and cisplatin and incubated for another 48 h. Control wells were formed by culture media with the maximum concentration of DMSO used in each assay (1‰). The cells were stained with 20 µL of MTT in an incubator for about 4 h. The medium was thrown away and replaced by […] DMSO. The absorbance (OD) value was read at 490 nm on an enzyme labeling instrument. Each experiment was repeated at least three times to obtain the mean values.
(Formazan colour is commonly taken as a measure of viable cells.)

The subject of data set [2] is NCI-H460 human lung cancer cell line. Description: MTT cytotoxicity assay, NCI-H460. Type of data set: cell-based. As to conditions: Homo sapiens, NCI-H460, 48 h, mean ± SD from three independent experiments. How it is done:
as §1, §2

Data set [3] has as its system CNE-2 human nasopharyngeal carcinoma cell line. Description: MTT cytotoxicity assay, CNE-2. It is filed as cell-based. The following applies: Homo sapiens, CNE-2, 48 h, mean ± SD from three independent experiments. The procedure: as §1, §2
Data set [4] has as its system MGC-803 human gastric cancer cell line. The data set is described as follows: MTT cytotoxicity assay, MGC-803. It is filed as cell-based. As to conditions: Homo sapiens, MGC-803, 48 h, mean ± SD from three independent experiments. How it is done:
as §1, §2

For data set [5], the system named is human normal liver cell line LO2. Description: MTT cytotoxicity assay, normal LO2 cells. Type of data set: cell-based. As to conditions: Homo sapiens, L02, 48 h, mean ± SD from three independent experiments. The procedure: as §1, §2

`C#Cc1cccc(N2CC(COC(=O)[C@]3(C)CCC[C@]4(C)c5ccc(C(C)C)cc5CCC34)OC2=O)c1` (stereo partly drawn) [Compound 4o, (1R,4aS)-(3-(3-Ehynylphenyl)-2-Oxooxazolidin-5-yl)Methyl-7-Isopropyl-1,4a-Dimethyl-1,2,3,4,4a,9,10,10a-Octahydrophenanthrene-1-Carboxylate] gave a melting point of 125.2 to 130.4 °C. Also, the IC50 in data set [1] came to 23.7 ± 2.02 µM. In data set [2], it took 72.4 ± 1.07 µM to reach half-maximal inhibition (IC50). The compound also registered an IC50 in data set [3] of 51.4 ± 5.06 µM. This compound also came in with an IC50 in data set [4] of 18.2 ± 2.36 µM. Moreover, the IC50 in data set [5] was over 100 µM.

In turn, `CC(C)c1ccc2c(c1)CCC1[C@](C)(C(=O)OCC3CN(c4ccc(Cl)cc4)C(=O)O3)CCC[C@]21C` (stereo partly drawn) [Compound 4l, (1R,4aS)-(3-(4-Chlorophenyl)-2-Oxooxazolidin-5-yl)Methyl-7-Isopropyl-1,4a-Dimethyl-1,2,3,4,4a,9,10,10a-Octahydrophenanthrene-1-Carboxylate] displayed a melting point of 170.6 to 172.5 °C. Moreover, the IC50 in data set [1] came out at 15.7 ± 2.32 µM. It took 26.55 ± 0.08 µM to reach half-maximal inhibition in data set [2] (IC50). Besides, in data set [3], the IC50 is 27.6 ± 1.5 µM. In data set [4], this compound showed an IC50 of 5.82 ± 4.82 µM. This compound also came in with an IC50 in data set [5] of 44.5 ± 2.77 µM.

Take `Cc1ccccc1NCC(O)COC(=O)[C@]1(C)CCC[C@]2(C)c3ccc(C(C)C)cc3CCC12` (stereo partly drawn) [Compound 3b, (1R,4aS)-2-Hydroxy-3-(2-Methylphenylamino)Propyl-7-Isopropyl-1,4a-Dimethyl-1,2,3,4,4a,9,10, 10a-Octahydrophenanthrene-1-Carboxylate]: the IC50 was over 100 µM in data set [1]; over 100 µM in data set [2]; over 100 µM in data set [3]; 22.6 ± 2.71 µM in data set [4]; over 100 µM in data set [5].

For the compound `COc1cccc(NCC(O)COC(=O)[C@]2(C)CCC[C@]3(C)c4ccc(C(C)C)cc4CCC23)c1` (stereo partly drawn) [Compound 3f, (1R,4aS)-2-Hydroxy-3-(3-Methoxyphenylamino)Propyl-7-Isopropyl-1,4a-Dimethyl-1,2,3,4,4a,9, 10,10a-Octahydrophenanthrene-1-Carboxylate], the IC50 was 18.01 ± 0.09 µM in data set [1]; 21.9 ± 8.61 µM in data set [2]; 17.4 ± 4.32 µM in data set [3]; 18.4 ± 1.45 µM in data set [4]; over 100 µM in data set [5].

As to `CC(C)c1ccc2c(c1)CCC1[C@](C)(C(=O)OCC(O)CNc3cccc(Br)c3)CCC[C@]21C` (stereo partly drawn) [Compound 3m, (1R,4aS)-2-Hydroxy-3-(3-Bromophenylamino)Propyl-7-Isopropyl-1,4a-Dimethyl-1,2,3,4,4a,9,10, 10a-Octahydrophenanthrene-1-Carboxylate], the IC50 in data set [1] is 30.3 ± 0.59 µM; in data set [2] it was 19.6 ± 1.12 µM; in data set [3], 23.2 ± 2.78 µM; in data set [4], 16.5 ± 5.2 µM; in data set [5], over 100 µM.

For `CC(C)c1ccc2c(c1)CCC1[C@](C)(C(=O)OCC(O)CNc3cccc(Cl)c3)CCC[C@]21C` (stereo partly drawn) [Compound 3k, (1R,4aS)-2-Hydroxy-3-(3-Chlorophenylamino)Propyl-7-Isopropyl-1,4a-Dimethyl-1,2,3,4,4a,9,10, 10a-Octahydrophenanthrene-1-Carboxylate], the IC50 in data set [1] was 25.1 ± 4.8 µM; in data set [2], 18.1 ± 2.33 µM; in data set [3], 18.2 ± 4.06 µM; in data set [4], 13.1 ± 2.66 µM; in data set [5], 35.3 ± 0.57 µM.

As for `CC(C)c1ccc2c(c1)CCC1[C@](C)(C(=O)OCC3CN(c4cccc(Br)c4)C(=O)O3)CCC[C@]21C` (stereo partly drawn) [Compound 4m, (1R,4aS)-(3-(3-Bromophenyl)-2-Oxooxazolidin-5-yl)Methyl-7-Isopropyl-1,4a-Dimethyl-1,2,3,4,4a,9,10,10a-Octahydrophenanthrene-1-Carboxylate], the IC50 is over 100 µM in data set [1]; 25.1 ± 1.39 µM in data set [2]; over 100 µM in data set [3]; 9.8 ± 2.37 µM in data set [4]; 34.2 ± 2.88 µM in data set [5].

Consider `Cc1ccc(NCC(O)COC(=O)[C@]2(C)CCC[C@]3(C)c4ccc(C(C)C)cc4CCC23)cc1` (stereo partly drawn) [Compound 3d, (1R,4aS)-2-Hydroxy-3-(4-Methylphenylamino)Propyl-7-Isopropyl-1,4a-Dimethyl-1,2,3,4,4a,9,10, 10a-Octahydrophenanthrene-1-Carboxylate], for which the IC50 was 29.9 ± 0.8 µM in data set [1]; 44.8 ± 5.26 µM in data set [2]; 44.1 ± 2.89 µM in data set [3]; 21.8 ± 2.66 µM in data set [4]; over 100 µM in data set [5].

With `CC(C)c1ccc2c(c1)CCC1[C@](C)(C(=O)OCC3CN(c4cccc(F)c4)C(=O)O3)CCC[C@]21C` (stereo partly drawn) [Compound 4i, (1R,4aS)-(3-(3-Fluorophenyl)-2-Oxooxazolidin-5-yl)Methyl-7-Isopropyl-1,4a-Dimethyl-1,2,3,4,4a, 9,10,10a-Octahydrophenanthrene-1-Carboxylate], the IC50 was 9.86 ± 4.3 µM in data set [1]; 25.1 ± 4.5 µM in data set [2]; 28 ± 3.95 µM in data set [3]; 11.5 ± 0.25 µM in data set [4]; over 100 µM in data set [5].

As to `CC(C)c1ccc2c(c1)CCC1[C@](C)(C(=O)OCC(O)CNc3ccc(Br)cc3)CCC[C@]21C` (stereo partly drawn) [Compound 3n, (1R,4aS)-2-Hydroxy-3-(4-Bromophenylamino)Propyl-7-Isopropyl-1,4a-Dimethyl-1,2,3,4,4a,9,10, 10a-Octahydrophenanthrene-1-Carboxylate], the IC50 is 19 ± 2.11 µM in data set [1]; 19.1 ± 5.23 µM in data set [2]; 17.9 ± 4.47 µM in data set [3]; 9.91 ± 7 µM in data set [4]; over 100 µM in data set [5].

Regarding `COc1ccc(N2CC(COC(=O)[C@]3(C)CCC[C@]4(C)c5ccc(C(C)C)cc5CCC34)OC2=O)cc1` (stereo partly drawn) [Compound 4g, (1R,4aS)-(3-(4-Methoxyphenyl)-2-Oxooxazolidin-5-yl)Methyl-7-Isopropyl-1,4a-Dimethyl-1,2,3,4,4a,9,10,10a-Octahydrophenanthrene-1-Carboxylate], the IC50 in data set [1] came to 4.1 ± 2.45 µM; in data set [2] it was 14.1 ± 8.04 µM; in data set [3] it was 19.8 ± 0.3 µM; in data set [4], 6.1 ± 0.35 µM; in data set [5] it was 26.36 ± 0.15 µM.

For `Cc1cccc(NCC(O)COC(=O)[C@]2(C)CCC[C@]3(C)c4ccc(C(C)C)cc4CCC23)c1` (stereo partly drawn) [Compound 3c, (1R,4aS)-2-Hydroxy-3-(3-Methylphenylamino)Propyl-7-Isopropyl-1,4a-Dimethyl-1,2,3,4,4a,9,10, 10a-Octahydrophenanthrene-1-Carboxylate], the IC50 stood at 14.8 ± 4.03 µM in data set [1]; 20.1 ± 2.95 µM in data set [2]; 14.6 ± 0.19 µM in data set [3]; 12.3 ± 4.87 µM in data set [4]; 34.7 ± 0.45 µM in data set [5].

As to `CC(C)c1ccc2c(c1)CCC1[C@](C)(C(=O)OCC(O)CNc3ccccc3)CCC[C@]21C` (stereo partly drawn) [Compound 3a, (1R,4aS)-2-Hydroxy-3-(Phenylamino)Propyl-7-Isopropyl-1,4a-Dimethyl-1,2,3,4,4a,9,10,10a-Octahydrophenanthrene-1-Carboxylate], the IC50 in data set [1] is 15.1 ± 0.57 µM; in data set [2], 18.6 ± 0.97 µM; in data set [3] it was 27.87 ± 0.25 µM; in data set [4], 7.1 ± 1.51 µM; in data set [5], over 100 µM.

As a reminder, the IC50 is the midpoint of a concentration-inhibition curve. Low readings indicate higher potency, high ones lower potency. For orientation: melting point means the temperature of the solid-liquid transition.

The values are drawn from publication PMC6213879, “Synthesis and Biological Evaluation of Novel Dehydroabietic Acid-Oxazolidinone Hybrids for Antitumor Properties” (International Journal of Molecular Sciences, 2018).
